Experimental data as given in US20240366813A1, “PEPTIDE-UREA DERIVATIVE, PHARMACEUTICAL COMPOSITION CONTAINING SAME AND APPLICATION THEREOF” (Bivision Pharmaceuticals, Inc., priority 0001, published 2024).

Test system: PSMA-positive cells LNCap
Test: Uptake of labeled compounds by PSMA-positive cells LNCap
Format: cell-based
Settings: 37° C., 0.5 h
Description: LNCap cells (Shangcheng Beina Chuanglian Biotechnology Co., Ltd., Industrial Park, Chengguan Town, Shangcheng County, Xinyang City, Henan Province) were revived and passaged for expansion. After the cells were expanded to a sufficient amount, cells were seeded in a 24-well plate at a density of 1×10^4 cells/well. Uptake tests were performed when cells grew to 80%-90% confluence.
The above labeled compounds ^177Lu-E1, ^177Lu-E2, ^177Lu-E3, ^177Lu-E5, ^177Lu-E9, ^177Lu-E14 and ^177Lu-PSMA-617 were diluted with serum-free medium into 10000, 1000, 100, 10, 1, 0.1 and 0 nM. 1 mL of the diluted solution was added to a 24-well plate, and incubated at 37° C. for 0.5 h. The supernatant was discarded and the cells were washed 3 times with PBS. 250 μL of 1M NaOH solution was added to each well. The cells were pipetted until they were completely dissolved, and transferred to a scintillation vial. 250 μL of NaOH solution was added to each well again to wash the bottom of the well and transferred to a scintillation vial. 2 mL of scintillation fluid was added to each scintillation vial and shaken well. A liquid scintillation counter was used to detect radioactive counts in each vial.

O=C([O-])CN1CCN(CC(=O)[O-])CCN(CC(=O)N2CCc3cc(C(=O)NC(Cc4ccc5ccccc5c4)C(=O)NCCCCC(NC(=O)NC(CCC(=O)O)C(=O)O)C(=O)O)ccc3C2)CCN(CC(=O)[O-])CC1.[177Lu+3] (stereo not drawn) [^177Lu-E3]
uptake by LNCap cells (0.1 nM): 48 cpm
uptake by LNCap cells (1 nM): 95 cpm
uptake by LNCap cells (10 nM): 346 cpm
uptake by LNCap cells (100 nM): 555 cpm
uptake by LNCap cells (1000 nM): 903 cpm
uptake by LNCap cells (10000 nM): 3150 cpm
